Results taken from patent publication US3960862A, “1,3-Diazacycloalkeno-[1,2,d]-benzo-[f-]-1,3,4-thiadiazepines” (BASF Aktiengesellschaft, priority 1973, dated 1976).

Tests used:
[1] = pharmacological screening (blood pressure, sympathomimetric and central nervous system effects; analgesic, spasmolytic, anti-inflammatory, broncholytic properties); conditions: in vivo
central nervous system = test: behavior of animals treated with the compound; parameters: species or system mice; conditions: mouse, in vivo
[2] = effective dose compared with range of toxic doses; conditions: in vivo
[3] = test system: phenylquinone-induced writhing reactions in mice; test: writhing test on mice (phenylquinone i.p.), peroral application; assay type: in vivo; conditions: for ΣR x ± sx (frequency of writhing reactions) / % effect (Decrease in the writhing reactions): n = 10, mice
Experimental: In this test p-benzoquinone (phenylquinone) in a 0.02% aqueous solution in a volume of 10 ml/kg of body weight i.p. serves to initiate pain. The typical writhing reactions which occur after a certain latency period are recorded in their frequency; decrease in the writhing frequency is evaluated as analgesic effect. The following Table indicates the numerical connection between dosage and effect after peroral application of the active ingredient.
^o T-test for independent random samples, bilateral questioning, significant down to 0.05, below 0.001 not given. n = number of test animals. The values are mean values ± mean error of the mean value.

With O=[N+]([O-])c1cccc(C2=NN3CCN=C3c3ccccc3S2)c1 [Example 4, Imidazolino-[1,2-d]-benzo-[f]-2-(3-nitrophenyl)-1,3,4-thiadiazepine] as the molecule, how does the “pharmacological effect, particularly analgesic properties” value [1] read?
Its value is “singled out for their pharmacological effect, particularly their analgesic properties”.

For O=[N+]([O-])c1cccc(C2=NN3CCCN=C3c3ccccc3S2)c1 [Example 18, Tetrahydropyrimidino-[1,2-d]-benzo-[f]-2-(3-nitrophenyl)-1,3,4-thiadiazepine], which “pharmacological effect, particularly analgesic properties” value [1] is on record?
Its value is “singled out for their pharmacological effect, particularly their analgesic properties”.

What about the “behavior of treated animals” value (central nervous system) of the same molecule?
The value was “consistent with a central nervous system depressant action”.

What about the “effective dose relative to toxic doses” value [2] of the same molecule?
Its value is “much below the range of toxic doses”.

And the “ΣR x ± sx (frequency of writhing reactions)” value (shortened to “ΣR x ± sx”) ([3]; 4.64 mg/kg peroral)?
Its value is 14.7 ± 2.1.

What about the “% effect (Decrease in the writhing reactions)” value ([3]; 4.64 mg/kg peroral, P <0.02) of the same molecule?
The value was 28.1 ± 10.3%.

And the “ΣR x ± sx” value ([3]; 10 mg/kg peroral)?
The value was 12.7 ± 2.4.

And the “% effect (Decrease in the writhing reactions)” value ([3]; 10 mg/kg peroral, P <0.002)?
Its value is 37.9 ± 11.8%.

What about the “ΣR x ± sx” value ([3]; 21.5 mg/kg peroral) of the same molecule?
Its value is 10.4 ± 1.9.

And the “% effect (Decrease in the writhing reactions)” value ([3]; 21.5 mg/kg peroral, P <0.001)?
The value was 49.1 ± 9.4%.

What about the “ΣR x ± sx” value ([3]; 46.4 mg/kg peroral) of the same molecule?
Its value is 8.9 ± 1.5.

And the “% effect (Decrease in the writhing reactions)” value ([3]; 46.4 mg/kg peroral, P <0.001)?
Its value is 56.5 ± 7.2%.

What about the “ΣR x ± sx” value ([3]; 100 mg/kg peroral) of the same molecule?
Its value is 6.2 ± 1.7.

What about the “% effect (Decrease in the writhing reactions)” value ([3]; 100 mg/kg peroral, P <0.001) of the same molecule?
The value was 69.7 ± 8.4%.

What about the “ΣR x ± sx” value ([3]; 215 mg/kg peroral) of the same molecule?
Its value is 0.8 ± 0.8.

And the “% effect (Decrease in the writhing reactions)” value ([3]; 215 mg/kg peroral, P <0.001)?
Its value is 96.1 ± 3.9%.

And the ED50 ([3]; Mus musculus, po, peroral application, mice, from regression line)?
The ED50 was 21.6 mg/kg.
